This is an account of results in patent publication US9499811B2, “Ligation enhancement” (New England Biolabs, Inc., priority 2011, dated 2016).

In test [1] the target is T1, T4 DNA ligase (Enterobacteria phage T4, UniProt P00970).
T1 sequence (P00970 1-487): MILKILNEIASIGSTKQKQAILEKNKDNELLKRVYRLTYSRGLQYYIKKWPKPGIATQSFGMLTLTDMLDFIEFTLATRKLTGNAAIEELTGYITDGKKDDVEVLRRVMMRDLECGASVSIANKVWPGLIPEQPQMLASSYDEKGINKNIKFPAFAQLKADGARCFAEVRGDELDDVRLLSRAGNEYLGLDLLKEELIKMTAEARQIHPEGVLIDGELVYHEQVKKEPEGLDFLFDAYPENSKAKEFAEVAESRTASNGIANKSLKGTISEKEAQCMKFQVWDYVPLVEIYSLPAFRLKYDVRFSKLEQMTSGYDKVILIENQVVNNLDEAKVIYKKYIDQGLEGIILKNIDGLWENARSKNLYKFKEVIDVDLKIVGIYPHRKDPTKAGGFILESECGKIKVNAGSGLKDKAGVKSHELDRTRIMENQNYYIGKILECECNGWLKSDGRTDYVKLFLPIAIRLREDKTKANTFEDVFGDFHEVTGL
In words: Cloning of a 500 bp amplicon made by Taq DNA polymerase into a T-tailed vector (ligation test system a). The format is biochemical. On the set-up: purchased NEB (New England Biolabs), Ipswich, Mass. #M0202. To be noted: no addition = 1-fold, single-base overhangs. As for the experimental part: (§1) All were tested side-by-side using two ligation test systems which were: (a) cloning of a 500 bp amplicon made by Taq DNA polymerase into a T-tailed vector; and (b) recircularization of an AhdI-linearized plasmid. Both ligation test systems used DNA with single-base overhangs.
(§2) The reaction mixtures contained DNA at 50-100 ng and 1,2-PrD at different concentrations. 1 μl of regular concentration (NEB, Ipswich, Mass., #M0202; 400 units) or 1 μl of high concentration T4 DNA ligase (NEB, Ipswich, Mass., #M0202; 2000 units) was then added to a final volume of 21 μl in 1×T4 DNA Ligase Buffer (NEB, Ipwich, Mass., #B0202) or 1× Quick Ligase™ Buffer (NEB, Ipswich, Mass., #B2200).
(§3) A standard assay uses 100 ng DNA, 1 μl of T4 DNA ligase, 21 μl 1×T4 DNA ligase buffer and varying amounts of enhancer.
(§4) Ligation reactions were incubated for 10 min at room temperature (25° C.) unless otherwise stated, then placed on ice for 2 min. In some experiments the ligase was heat-killed by incubation at 65° C. for 20 min. The ligation reactions were analyzed by 1% agarose gel electrophoresis to identify DNA species and determine the efficiency of […].
(§5) A volume of 2 μl from each ligation reaction was incubated with 50 μl of chemically competent (NEB, Ipswich, Mass., #C2987I) or electrocompetent (NEB, Ipswich, Mass., #C2989K) DH5 alpha E. coli cells.
(§6) For chemically competent cell transformations, the cell-DNA mixture was incubated on ice for 30 min, heat-shocked at 42° C. for 30 sec, then returned to ice for 5 min. A volume of 950 μl SOC medium (2% vegetable peptone or Tryptone, 0.5% yeast extract, 10 mM NaCl, 2.5 mM KCl, 10 mM MgCl2, 10 mM MgSO4 and 20 mM glucose) was added to the cell-DNA mixture, followed by a one hr 37° C. outgrowth period with agitation. A volume of 25-50 μl of appropriately diluted cells in SOC was spread onto Rich Agar plates (composition per liter: 10 g soy peptone, 5 g yeast extract, 10 g NaCl, 1 g MgCl2-6H2O, 1 g dextrose, 15 grams agar) supplemented with 100 μg/ml ampicillin. Plates were inverted and incubated for 16 hrs at 37° C., followed by quantification of total colony numbers.

Test [2] concerns the target T1, T4 DNA ligase. In kind it is biochemical. On the set-up: purchased NEB (New England Biolabs), Ipswich, Mass. #M0202. As for the experimental part:
as §1, §2, §3, §4, §5, §6

Test [3] has as its target T1, T4 DNA ligase. The note with it: Pheiffer et al. 1983; cited from earlier work.
For another test, the system named is ligase. To be noted: Xiao et al. 2007; nick junctions in double-stranded DNA; cited from earlier work.
Setting [4] is: enhancer at 12%, no addition = 1-fold, single-base overhangs.

Like-named read-outs stand apart in the source and are kept apart here.

As for `OCCO` [Ethylene glycol], the “Cloning Enhancement” value at T4 DNA ligase [1] (enhancer at 12%) is given as 10-fold. Besides, the “Recircularization Enhancement” value at T4 DNA ligase [2] is recorded as 8-fold.

Take PEG 200: the “Effect on blunt-end ligation” value on T4 DNA ligase [3] is “little effect on ligation”.

On to `OCC(O)CO` [Glycerol], for which the “Effect on efficiency of ligation” value with ligase was “inhibited the efficiency of the ligation reaction at nick junctions in double-stranded DNA”. For the same compound, the “Cloning Enhancement” value at T4 DNA ligase [1] (enhancer at 12%) was 4-fold. Further, at T4 DNA ligase [2] (setting [4]), the “Recircularization Enhancement” value is reported as 5-fold.

Consider `C[S+](C)[O-]` [DMSO, dimethyl sulfoxide], for which the “Effect on efficiency of ligation” value with ligase is listed as “inhibited the efficiency of the ligation reaction at nick junctions in double-stranded DNA”. Moreover, the “Cloning Enhancement” value on T4 DNA ligase [1] (enhancer at 6%) is reported as 12-fold. At T4 DNA ligase [2] (enhancer at 6%, no addition = 1-fold, single-base overhangs), the “Recircularization Enhancement” value is recorded as 9-fold.

`CCO` [Ethanol]: the “Cloning Enhancement” value on T4 DNA ligase [1] (enhancer at 12%) is 25-fold. For the same compound, on T4 DNA ligase [2], the “Recircularization Enhancement” value is given as 9-fold.

Consider `NC=O` [formamide, reference compound], for which, in the test with ligase, the “Effect on efficiency of ligation” value was “inhibited the efficiency of the ligation reaction at nick junctions in double-stranded DNA”.

On to `C[N+](C)(C)CC(=O)O` [Betaine], for which the “Cloning Enhancement” value on T4 DNA ligase [1] (enhancer at 1.3M) is 12-fold. Further, at T4 DNA ligase [2] (enhancer at 1.3M, no addition = 1-fold, single-base overhangs), the “Recircularization Enhancement” value is 13-fold.

Take PEG 400: the “Effect on blunt-end ligation” value on T4 DNA ligase [3] is “little effect on ligation”.

Regarding `CC(C)O` [Isopropanol], the “Cloning Enhancement” value at T4 DNA ligase [1] (enhancer at 12%) is 16-fold. Moreover, on T4 DNA ligase [2] (setting [4]), the “Recircularization Enhancement” value is 10-fold.

`OCCCO` [1,3-PrD, 1,3-propanediol]: at T4 DNA ligase [1] (enhancer at 12%), the “Cloning Enhancement” value is 7-fold. Further, the “Recircularization Enhancement” value at T4 DNA ligase [2] (setting [4]) amounted to 9 fold.
